Patent publication US10072055B2, “Anti-inflammatory pharmaceutical products” (Resother Pharma APS, priority 2011, dated 2018)
“Also recorded” adds a separate entry of the source. Ends that are not written are not given here.

Legend:
[1] = system: PMN interaction to an activated HUVEC monolayer; test: Flow chamber assay: PMN interaction with activated HUVEC monolayer (capture, rolling, adhesion); type: cell-based, human; details: for inhibition of PMN interaction with HUVECs (capture, adhesion, rolling): 10 μM peptide, 10 min at 37° C., flow 8 min at 1 dyne/cm^2; for inhibition of PMN/neutrophil-endothelium interactions in flow chamber: concentration not given; for lowest concentration with activity on PMN-HUVEC interactions: flow chamber model
From the text: FIGS. 2A-2C are a series of charts reporting data from flow chamber analysis to determine the inhibitory capability of five polypeptides of the present disclosure (Pep57 (SEQ ID NO:12); Pep59 (SEQ ID NO:13), Pep60 (SEQ ID NO:15), Pep83 (SEQ ID NO:16) and Pep84 (SEQ ID NO:14)) and Ac-ANAX1(2-26)-OH to reduce PMN interaction to an activated HUVEC monolayer.
FIGS. 4A-4C are a series of bar charts reporting percent inhibition provided by three polypeptides (UGP022 (SEQ ID NO:5); UGP025 (SEQ ID NO:7) and UGP026 (SEQ ID NO:8)) of the present disclosure, at different concentrations, on three different parameters (capture—FIG. 4A; rolling—FIG. 4B; and adhesion—FIG. 4C).
FIGS. 2A-2C are a series of charts reporting data from flow chamber analysis to determine the inhibitory capability of five polypeptides (Pep57 (SEQ ID NO: 12); Pep59 (SEQ ID NO: 13), Pep60 (SEQ ID NO: 15), Pep83 (SEQ ID NO: 16) and Pep84 (SEQ ID NO: 14)) of the present disclosure and Ac-ANAX1(2-26)-OH to reduce PMN interaction to an activated HUVEC monolayer. PMNs (5×10^6) were incubated with 10 μM of the various peptides for 10 min at 37° C. The PMNs were then flowed for 8 min at 1 dyne/cm^2, prior to quantifying the degree of PMN interaction with the HUVECs, both as PMN capture (FIG. 2A), adhesion (FIG. 2B) and rolling (FIG. 2C). […] Data are mean±SEM of 3 independent experiments (with distinct PMN and HUVEC preparations); *=P<0.05 vs. CT group, data analyzed using one way ANOVA.
FIGS. 4A-4C make a direct comparison of the activities of UGP022 (SEQ ID NO:5), UGP025 (SEQ ID NO: 7) and UGP026 (SEQ ID NO: 8) in the flow chamber assay, presenting the degree of inhibition on the three parameters under analysis (capture (FIG. 4A); rolling (FIG. 4B) and adhesion (FIG. 4C)).

[2] = target: T1, FPR2 (Homo sapiens, UniProt P25090); test: p-ERK activation in HEK-FPR2 cells (western blot, densitometry p-ERK vs t-ERK); type: cell-based; design: expressed in transfected cells; host or cells: HEK cells (HEK-FPR2); details: for p-ERK activation through the FPR2 receptor: 10 μM peptide, 8 minutes, HEK-FPR2 cells
T1 sequence (P25090 1-351): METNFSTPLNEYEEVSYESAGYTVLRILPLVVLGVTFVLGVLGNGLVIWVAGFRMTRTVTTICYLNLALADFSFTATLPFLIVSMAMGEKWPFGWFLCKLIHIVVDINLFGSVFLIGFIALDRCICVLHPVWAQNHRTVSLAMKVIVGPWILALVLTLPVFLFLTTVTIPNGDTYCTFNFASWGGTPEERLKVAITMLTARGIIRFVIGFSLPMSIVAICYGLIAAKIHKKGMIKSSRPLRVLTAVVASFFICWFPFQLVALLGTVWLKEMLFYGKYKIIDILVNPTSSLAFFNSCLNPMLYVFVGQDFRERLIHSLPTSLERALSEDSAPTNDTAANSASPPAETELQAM
From the text: FIG. 1A and FIG. 1B show western blotting analysis comparing p-ERK activation potency through the FPR2 receptor for five polypeptides of the present disclosure (Pep57 (SEQ ID NO:12); Pep59 (SEQ ID NO:13), Pep60 (SEQ ID NO:15), Pep83 (SEQ ID NO:16) and Pep84 (SEQ ID NO:14)) relative to Ac-ANAX1(2-26)-OH. FIG. 1A is a representative blot for p-ERK and t-ERK.
The experiments whose results are reported in FIG. 1A and FIG. 1B were directed to determining which of the five polypeptides tested (Pep57 (SEQ ID NO: 12); Pep59 (SEQ ID NO: 13), Pep60 (SEQ ID NO: 15), Pep83 (SEQ ID NO: 16) and Pep84 (SEQ ID NO: 14)) best activated the p-ERK through the FPR2 receptor, similar to Ac-ANAX1(2-26)-OH, the parent peptide. The HEK-FPR2 cells were co-incubated with 10 μM of the novel Ac2-26 peptides for 8 minutes following which the cell were lysed and resuspended in cell lysis solution. Then 100 ng of total protein were loaded on to 10% polyacrylamide gel. Following electrophoresis, transfer and blocking the membrane was first probed with an anti p-ERK antibody and then stripped and reprobed with and anti total ERK antibody. […] Data presented as mean and SEM of 3 distinct experiments with one way ANOVA employed for statistical analysis. (*=P<0.05 vs. CT).

[3] = target: T2, FPR1 (Homo sapiens, UniProt P21462); test: FPR1 activation (ERK phosphorylation and intracellular calcium fluxes); type: cell-based
T2 sequence (P21462 1-350): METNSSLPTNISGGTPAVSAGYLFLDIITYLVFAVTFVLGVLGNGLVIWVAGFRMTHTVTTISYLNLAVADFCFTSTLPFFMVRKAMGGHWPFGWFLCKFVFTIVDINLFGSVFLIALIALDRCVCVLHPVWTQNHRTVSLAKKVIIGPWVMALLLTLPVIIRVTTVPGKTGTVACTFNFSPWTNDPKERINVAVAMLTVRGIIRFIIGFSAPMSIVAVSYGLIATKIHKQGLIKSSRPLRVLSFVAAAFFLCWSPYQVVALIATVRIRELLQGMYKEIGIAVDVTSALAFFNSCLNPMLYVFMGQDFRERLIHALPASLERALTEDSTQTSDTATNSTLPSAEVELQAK

[4] = system: leukocyte recruitment into the inflamed airpouch; test: Mouse IL-1β air-pouch inflammation model (leukocyte migration); type: in vivo; details: for inhibition of leukocyte infiltration/recruitment in air-pouch model: mouse air-pouch
Method: FIG. 3A and FIG. 3B are a series of bar charts comparing the anti-inflammatory effects of three polypeptides (Pep57 (SEQ ID NO:12); Pep59 (SEQ ID NO:13) and Pep84 (SEQ ID NO:14)) of the present disclosure versus a vehicle-only control.
FIG. 3A and FIG. 3B are a series of bar charts comparing the anti-inflammatory effects of three polypeptides (Pep57 (SEQ ID NO: 12); Pep59 (SEQ ID NO: 13) and Pep84 (SEQ ID NO: 14)) of the present disclosure versus a vehicle-only control. Mice received 200 μl i.v. of saline+DMSO or a dose of 50 μg per animal of one of the three Ac2-26 derived peptides, immediately before the local injection of mouse IL-1β into 6-day-old airpouches. The extent of cell migration was determined 4 h later, following airpouch washing and staining of migrated cells with Gr1 marker. […] Data are mean±SEM of 5 mice per group. *P<0.05 vs. vehicle group (one way ANOVA).

[5] = target: T1, FPR2; test: Binding affinity to FPR2
[6] = target: T1, FPR2; test: FPR2 activation (ERK phosphorylation and intracellular calcium fluxes); type: cell-based
[7] = 50 μg per animal i.v., IL-1β, 4 h

Substance | activation of FPR1 [3] | activation of FPR2 [6] | inhibition of PMN interaction with HUVECs (capture, adhesion, rolling) [1] | p-ERK activation through the FPR2 receptor [2] | inhibition of leukocyte infiltration/recruitment in air-pouch model [4] | inhibition of PMN/neutrophil-endothelium interactions in flow chamber [1] | binding affinity to FPR2 [5] | downstream signaling via the FPR family of receptors [2] | migrated cell count in air-pouch (FIG. 3A) [4, 7] | lowest concentration with activity on PMN-HUVEC interactions [1] [pM] | GR1+ve cells in air-pouch (FIG. 3B) [4, 7]
Ac-ANAX1(2-26)-OH (Ac-AMVSEFLKQAWFIENEEQEYVQTVK-OH) [Ac2-26, parent peptide; mimics the 2nd to the 26th amino acids of the Annexin A1 N-terminal region, N-terminally acetylated, reference compound] | – | – | inhibitory properties | activation caused by the parent Ac2-26 | – | – | – | – | – | – | –
Asp11,22-Ac-ANAX1(2-26)-OH (Ac-AMVSEFLKQDWFIENEEQEYDQTVK-OH) [Pep59, 25 amino acids; Annexin 1 (2-26), residues 10 and 21 aspartic acid, residue 1 acetylated] | – | – | did not display any inhibitory properties in this assay | p-ERK activated was observed to be highest; also recorded: very high p-ERK activation potential | – | – | – | lead to downstream signaling via the FPR family of receptors | – | – | –
Met11,22-Ac-ANAX1(2-26)-OH (Ac-AMVSEFLKQMWFIENEEQEYMQTVK-OH) [Pep84] | – | – | displayed inhibitory properties similar to those observed in the parent Ac2-26 peptide | p-ERK activated was observed to be highest | inhibiting this inflammatory readout to a larger extent | significantly inhibited PMN-HUVEC interactions | – | lead to downstream signaling via the FPR family of receptors | display anti-inflammatory properties | 10 | –
Leu11,22-Ac-ANAX1(2-26)-OH (Ac-AMVSEFLKQLWFIENEEQEYLQTVK-OH) [Pep57, 25 amino acids; Annexin 1 (2-26), residues 10 and 21 leucine, residue 1 acetylated] | – | – | displayed inhibitory properties similar to those observed in the parent Ac2-26 peptide | p-ERK activated was observed to be highest | significantly inhibiting leukocyte infiltration; also recorded: displayed inhibitory potential in the model | significantly inhibited PMN-HUVEC interactions | – | lead to downstream signaling via the FPR family of receptors | display anti-inflammatory properties | 10 | losing this observed effect
Glu11,22-Ac-ANAX1(2-26)-OH (Ac-AMVSEFLKQEWFIENEEQEYEQTVK-OH) [Pep60, 25 amino acids; Annexin 1 (2-26), residues 10 and 21 glutamic acid, residue 1 acetylated] | – | – | displayed potent inhibitory properties similar to those displayed by the parent Ac2-26 peptide | not that effective to phosphorylate ERK | – | – | – | – | – | – | –
Ile11,22-Ac-ANAX1(2-26)-OH (Ac-AMVSEFLKQIWFIENEEQEYIQTVK-OH) [Pep83, 25 amino acids; Annexin 1 (2-26), residues 10 and 21 isoleucine, residue 1 acetylated] | – | – | only Pep57 (SEQ ID NO: 12), Pep60 (SEQ ID NO: 15) and Pep84 (SEQ ID NO: 14) display inhibitory properties | – | – | – | – | – | – | – | –

Continued, in another order:

activation of FPR1 [3] | activation of FPR2 [6] | Substance | inhibition of PMN interaction with HUVECs (capture, adhesion, rolling) [1] | p-ERK activation through the FPR2 receptor [2] | inhibition of leukocyte infiltration/recruitment in air-pouch model [4] | inhibition of PMN/neutrophil-endothelium interactions in flow chamber [1] | binding affinity to FPR2 [5] | downstream signaling via the FPR family of receptors [2] | migrated cell count in air-pouch (FIG. 3A) [4, 7] | lowest concentration with activity on PMN-HUVEC interactions [1] [pM] | GR1+ve cells in air-pouch (FIG. 3B) [4, 7]
could activate both FPR1 and FPR2 | could activate both FPR1 and FPR2 | ANXA1(2-50) Gly51-OH (AMVSEFLKQAWFIENEEQEYVQTVKSSKGGPGSAVSPYPTFNPSSDVAAG-OH; ends and bridges not checked) [UGP021, 50 amino acids; amino acids 2-50 of human Annexin 1, position 50 of the polypeptide is glycine] | – | – | more potent than Ac-ANXA1(2-26)-OH and full length ANXA1; also recorded: possess anti-inflammatory activities in an in vivo assay of leukocyte recruitment | more potent than Ac-ANXA1(2-26)-OH and full length ANXA1 | binding affinity to the FPR2 in the nanomolar range | – | – | – | –
could activate both FPR1 and FPR2 | could activate both FPR1 and FPR2 | ANXA1(2-50)-OH (AMVSEFLKQAWFIENEEQEYVQTVKSSKGGPGSAVSPYPTFNPSSDVAA-OH; ends and bridges not checked) [UGP024, 49 amino acids; amino acids 2-50 of human Annexin 1] | – | – | more potent than Ac-ANXA1(2-26)-OH and full length ANXA1; also recorded: possess anti-inflammatory activities in an in vivo assay of leukocyte recruitment | more potent than Ac-ANXA1(2-26)-OH and full length ANXA1 | – | – | – | – | –
